Like-named read-outs stand apart in the source and are kept apart here.
Key:
[1] = target: T. brucei N-myristoyl transferase (Trypanosoma brucei brucei (strain 927/4 GUTat10.1), UniProt Q388H8); experiment: biochemical; format: biochemical; conditions: read-out: IC50 (μM) NMT Enzyme
[2] = system: Trypanosome (T. brucei brucei); experiment: In-vitro antitrypanosomal efficacy assay (cell growth, resazurin); format: cell-based
Description: To column 12, 200 μl media was added to provide a no cells control. Plates were then incubated at 37° C. in an atmosphere of 5% CO2 for 69 hours, before the addition of 20 μl of 500 μM rezasurin solution, and a further incubation period of 4 hours. […] Concentration effect curves were fitted using non-linear regression using XLFit 4.2 and EC50 values determined.

[3] = value with no enzyme tag in the cell, taken as T. brucei NMT
[4] = value printed without enzyme tag in the NMT Enzyme column (taken as T. brucei NMT)
[5] = T. brucei brucei, blood stream form, variant 221

Sequence of T. brucei N-myristoyl transferase (Q388H8 1-446): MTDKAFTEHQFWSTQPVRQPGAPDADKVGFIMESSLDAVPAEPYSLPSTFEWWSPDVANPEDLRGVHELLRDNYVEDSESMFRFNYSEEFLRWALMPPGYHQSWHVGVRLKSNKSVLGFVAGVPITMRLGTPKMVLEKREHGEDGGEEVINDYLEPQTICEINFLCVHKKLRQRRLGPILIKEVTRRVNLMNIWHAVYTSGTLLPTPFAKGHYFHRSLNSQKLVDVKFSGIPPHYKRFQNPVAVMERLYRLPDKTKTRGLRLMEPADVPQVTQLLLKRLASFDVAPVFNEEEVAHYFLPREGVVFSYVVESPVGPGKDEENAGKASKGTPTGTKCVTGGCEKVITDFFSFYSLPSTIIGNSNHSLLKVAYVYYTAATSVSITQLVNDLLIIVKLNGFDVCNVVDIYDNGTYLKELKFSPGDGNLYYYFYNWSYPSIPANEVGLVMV

Cc1nn(C)c(C)c1N[S+](=O)([O-])c1c(Cl)cc(-c2ccnc(NCCN)c2)cc1Cl
IC50 [1, 3]: 1 µM
ED50 (μM) T. brucei ([2]; T. brucei cell growth): >1 µM

Cc1nn(C)c(C)c1N[S+](=O)([O-])c1ccc(NCCCN2CCN(Cc3ccccc3)CC2)nc1 [DD86299]
IC50 [1, 3]: 1 µM
ED50 (μM) T. brucei ([2]; T. brucei cell growth): >1 µM

Cc1nn(C)c(C)c1N[S+](=O)([O-])c1ccc2c(c1)OCCO2 [DDD16771]
IC50 [1, 4]: 4 µM
ED50 (μM) T. brucei ([2]; T. brucei cell growth): >1 µM

Cc1cc(N2CCCC2=O)cc(C)c1[S+](=O)([O-])Nc1c(C)nn(C)c1C [DDD22988]
IC50 [1, 4]: 8.3 µM
ED50 (μM) T. brucei ([2]; T. brucei cell growth): >1 µM

Cc1nn(C)c(C)c1N[S+](=O)([O-])c1ccccc1 [DDD48025]
IC50 [1, 4]: 11.8 µM
ED50 (μM) T. brucei ([2]; T. brucei cell growth): >1 µM

Cc1nn(C)c(C)c1N[S+](=O)([O-])c1cc(Cl)sc1Cl [DDD61495]
IC50 [1, 4]: 6.4 µM
ED50 (μM) T. brucei ([2]; T. brucei cell growth): >1 µM

COc1ccc(OC)c([S+](=O)([O-])Nc2c(C)nn(C)c2C)c1 [DDD64750]
IC50 [1, 4]: 30 µM
ED50 (μM) T. brucei ([2]; T. brucei cell growth): >1 µM

Cc1nn(C)c(C)c1N[S+](=O)([O-])c1ccc2c(c1)OCCCO2 [DDD71230]
IC50 [1, 4]: 3.5 µM
ED50 (μM) T. brucei ([2]; T. brucei cell growth): >1 µM

CC(=O)c1ccc([S+](=O)([O-])Nc2c(C)nn(C)c2C)cc1 [DDD71232]
IC50 [1, 4]: 42 µM
ED50 (μM) T. brucei ([2]; T. brucei cell growth): >1 µM

COc1ccc([S+](=O)([O-])Nc2c(C)nn(C)c2C)cc1Br [DDD71233]
IC50 [1, 4]: 2.6 µM
ED50 (μM) T. brucei ([2]; T. brucei cell growth): >1 µM

Cc1nn(C)c(C)c1N[S+](=O)([O-])c1ccc(OC(F)(F)F)cc1 [DDD71234]
IC50 [1, 4]: 2.7 µM
ED50 (μM) T. brucei ([2]; T. brucei cell growth): >1 µM

CC(=O)N1CCc2cc([S+](=O)([O-])Nc3c(C)nn(C)c3C)ccc21 [DDD71237]
IC50 [1, 4]: 8.8 µM
ED50 (μM) T. brucei ([2]; T. brucei cell growth): >1 µM

Cc1nn(C)c(C)c1N[S+](=O)([O-])c1ccc(C#N)cc1 [DDD71238]
IC50 [1, 4]: 32.6 µM
ED50 (μM) T. brucei ([2]; T. brucei cell growth): >1 µM

Cc1nn(C)c(C)c1N[S+](=O)([O-])c1cccc(Br)c1 [DDD71240]
IC50 [1, 4]: 8 µM
ED50 (μM) T. brucei ([2]; T. brucei cell growth): >1 µM

Cc1nn(C)c(C)c1N[S+](=O)([O-])c1ccc(C(C)C)cc1 [DDD71241]
IC50 [1, 4]: 1.5 µM
ED50 (μM) T. brucei ([2]; T. brucei cell growth): >1 µM

CCC(C)c1ccc([S+](=O)([O-])Nc2c(C)nn(C)c2C)cc1 (centres unmarked) [DDD71242]
IC50 [1, 4]: 4.3 µM
ED50 (μM) T. brucei ([2]; T. brucei cell growth): >1 µM

Cc1cc(C(C)(C)C)cc(C)c1[S+](=O)([O-])Nc1c(C)nn(C)c1C [DDD71243]
IC50 [1, 4]: 0.5 µM
ED50 (μM) T. brucei ([2]; T. brucei cell growth): 5.8 µM

Cc1nn(C)c(C)c1N[S+](=O)([O-])c1ccc2c(c1)CC(=O)N2 [DDD71244]
IC50 [1, 4]: 15.9 µM
ED50 (μM) T. brucei ([2]; T. brucei cell growth): >1 µM

Cc1nn(C)c(C)c1N[S+](=O)([O-])c1ccccc1F [DDD71245]
IC50 [1, 4]: 5.6 µM
ED50 (μM) T. brucei ([2]; T. brucei cell growth): >1 µM

Cc1nn(C)c(C)c1N[S+](=O)([O-])c1ccc2ccccc2c1 [DDD71246]
IC50 [1, 4]: 8.4 µM
ED50 (μM) T. brucei ([2]; T. brucei cell growth): >1 µM

Cc1nn(C)c(C)c1N[S+](=O)([O-])c1ccc2c(c1)CCC(=O)N2 [DDD71247]
IC50 [1, 4]: 3.4 µM
ED50 (μM) T. brucei ([2]; T. brucei cell growth): >1 µM

Cc1nn(C)c(C)c1N[S+](=O)([O-])c1c(C)c(C)c(C)c(C)c1C [DDD71248]
IC50 [1, 4]: 62.5 µM
ED50 (μM) T. brucei ([2]; T. brucei cell growth): >1 µM

Cc1ccc(C(C)(C)C)cc1[S+](=O)([O-])Nc1c(C)nn(C)c1C [DDD71251]
IC50 [1, 4]: > 100 µM
ED50 (μM) T. brucei ([2]; T. brucei cell growth): >1 µM

Cc1nn(C)c(C)c1N[S+](=O)([O-])c1ccc(Cl)c(C(F)(F)F)c1 [DDD71252]
IC50 [1, 4]: 17.4 µM
ED50 (μM) T. brucei ([2]; T. brucei cell growth): >1 µM

Cc1nn(C)c(C)c1N[S+](=O)([O-])c1ccc2c(c1)CCC2 [DDD71253]
IC50 [1, 4]: 5.6 µM
ED50 (μM) T. brucei ([2]; T. brucei cell growth): >1 µM

Cc1nn(C)c(C)c1N[S+](=O)([O-])c1ccc(N2CCOCC2)nc1 [DDD71274]
IC50 [1, 4]: 2 µM
ED50 (μM) T. brucei ([2]; T. brucei cell growth): >1 µM

COc1ccc(OCCC[S+](=O)([O-])Nc2c(C)nn(C)c2C)cc1 [DDD71275]
IC50 [1, 4]: 62 µM
ED50 (μM) T. brucei ([2]; T. brucei cell growth): >1 µM

Cc1nn(C)c(C)c1N[S+](=O)([O-])c1ccc(C2OCCO2)cc1 [DDD71276]
IC50 [1, 4]: 9.5 µM
ED50 (μM) T. brucei ([2]; T. brucei cell growth): >1 µM

COc1cc(C)c([S+](=O)([O-])Nc2cnc3ccccn23)c(C)c1C [DDD71277]
IC50 [1, 4]: 95 µM
ED50 (μM) T. brucei ([2]; T. brucei cell growth): >1 µM

Cc1nc(-c2ccc([S+](=O)([O-])Nc3c(C)nn(C)c3C)cc2)cs1 [DDD71278]
IC50 [1, 4]: 12.1 µM
ED50 (μM) T. brucei ([2]; T. brucei cell growth): >1 µM

COc1cc(C)c([S+](=O)([O-])Nc2cccnc2C)c(C)c1C [DDD71279]
IC50 [1, 4]: 10 µM
ED50 (μM) T. brucei ([2]; T. brucei cell growth): >1 µM

COc1cc(C)c([S+](=O)([O-])Nc2ccncc2)c(C)c1C [DDD71280]
IC50 [1, 4]: > 100 µM
ED50 (μM) T. brucei ([2]; T. brucei cell growth): >1 µM

Cc1nn(C)c(C)c1N[S+](=O)([O-])c1ccc2c(c1)OCCN2C [DDD71281]
IC50 [1, 4]: 16.1 µM
ED50 (μM) T. brucei ([2]; T. brucei cell growth): >1 µM

Cc1nn(C)c(C)c1N[S+](=O)([O-])c1ccc2c(c1)OCO2 [DDD71282]
IC50 [1, 4]: 4 µM
ED50 (μM) T. brucei ([2]; T. brucei cell growth): >1 µM

Cc1nn(C)c(C)c1N[S+](=O)([O-])c1cccc2cccnc12 [DDD71283]
IC50 [1, 4]: 7.4 µM
ED50 (μM) T. brucei ([2]; T. brucei cell growth): >1 µM

COc1cc(C)c([S+](=O)([O-])Nc2onc(C)c2C)c(C)c1C [DDD71284]
IC50 [1, 4]: > 100 µM
ED50 (μM) T. brucei ([2]; T. brucei cell growth): >1 µM

COc1cc(C)c([S+](=O)([O-])Nc2c(C)noc2C)c(C)c1C [DDD71285]
IC50 [1, 4]: 19.3 µM
ED50 (μM) T. brucei ([2]; T. brucei cell growth): >1 µM

COc1ccc([S+](=O)([O-])Nc2c(C)nn(C)c2C)cc1 [DDD71286]
IC50 [1, 4]: 9.8 µM
ED50 (μM) T. brucei ([2]; T. brucei cell growth): >1 µM

CC(=O)Nc1ccc([S+](=O)([O-])Nc2c(C)nn(C)c2C)cc1 [DDD71287]
IC50 [1, 4]: 2.8 µM
ED50 (μM) T. brucei ([2]; T. brucei cell growth): >1 µM

COc1cc(C)c([S+](=O)([O-])Nc2cccnc2)c(C)c1C [DDD71288]
IC50 [1, 4]: > 100 µM
ED50 (μM) T. brucei ([2]; T. brucei cell growth): >1 µM

COc1ccc([S+](=O)([O-])Nc2c(C)nn(C)c2C)cc1OC [DDD71290]
IC50 [1, 4]: 41 µM
ED50 (μM) T. brucei ([2]; T. brucei cell growth): >1 µM

COc1cc(C)c([S+](=O)([O-])Nc2ccccc2)c(C)c1C [DDD71292]
IC50 [1, 4]: > 100 µM
ED50 (μM) T. brucei ([2]; T. brucei cell growth): >1 µM

Cc1nn(C)c(C)c1N[S+](=O)([O-])Cc1ccccc1 [DDD71293]
IC50 [1, 4]: > 100 µM
ED50 (μM) T. brucei ([2]; T. brucei cell growth): >1 µM

Cc1nn(C)c(C)c1N[S+](=O)([O-])c1ccc(-n2cccn2)cc1 [DDD71294]
IC50 [1, 4]: 4.8 µM
ED50 (μM) T. brucei ([2]; T. brucei cell growth): >1 µM

COc1cc(C)c([S+](=O)([O-])Nc2ccncn2)c(C)c1C [DDD71295]
IC50 [1, 4]: 30 µM
ED50 (μM) T. brucei ([2]; T. brucei cell growth): >1 µM

COc1cc(C)c([S+](=O)([O-])NCc2c(C)nn(C)c2C)c(C)c1C [DDD71296]
IC50 [1, 4]: > 100 µM
ED50 (μM) T. brucei ([2]; T. brucei cell growth): >1 µM

Cc1nn(C)c(C)c1N[S+](=O)([O-])c1ccc(-c2ccccc2)cc1 [DDD71297]
IC50 [1, 4]: 10.5 µM
ED50 (μM) T. brucei ([2]; T. brucei cell growth): >1 µM

Cc1nn(C)c(C)c1N[S+](=O)([O-])c1ccc(Cl)c(Cl)c1 [DDD00071594]
IC50 [1, 4]: 9.9 µM
ED50 (μM) T. brucei ([2]; T. brucei cell growth): >1 µM

COc1cc(C)c([S+](=O)([O-])N2CCCc3ncccc32)c(C)c1C [DDD71600]
IC50 [1, 4]: 51 µM
ED50 (μM) T. brucei ([2]; T. brucei cell growth): >1 µM

COc1cc(C)c([S+](=O)([O-])Nc2c(C)n[nH]c2C)c(C)c1C [DDD71601]
IC50 [1, 4]: > 100 µM
ED50 (μM) T. brucei ([2]; T. brucei cell growth): >1 µM

Cc1nn(C)c(C)c1N(CC(F)(F)F)[S+](=O)([O-])c1c(Cl)cc(CCCOC2CCN(C)CC2)cc1Cl [DDD100803]
ED50 (μM) T. brucei [2, 5]: 0.008 µM

Cc1nn(C)c(C)c1N(C(F)F)[S+](=O)([O-])c1c(Cl)cc(Br)cc1Cl [DDD100805, 4-bromo-2,6-dichloro-N-(difluoromethyl)-N-(1,3,5-trimethyl-1H-pyrazol-4-yl)benzenesulfonamide]
ED50 (μM) T. brucei [2, 5]: >1 µM

Cc1c(N[S+](=O)([O-])c2ccc(-c3cccc(C(C)(C)N)c3)cc2)c(CC(C)C)nn1C [DDD100870]
ED50 (μM) T. brucei [2, 5]: 0.013 µM

Cc1nn(C)c(C)c1N(C(F)F)[S+](=O)([O-])c1c(Cl)cc(CCCOC2CN3CCC2CC3)cc1Cl (centres unmarked) [DDD100872]
ED50 (μM) T. brucei [2, 5]: 0.002 µM

Cc1c(N(C(F)F)[S+](=O)([O-])c2c(Cl)cc(-c3ccnc(N4CCNCC4)c3)cc2Cl)c(CC(C)C)nn1C [DDD100886]
ED50 (μM) T. brucei [2, 5]: 0.004 µM

Cc1nn(C)c(C)c1N(C(F)F)[S+](=O)([O-])c1ccc(-c2ccnc(N3CCNCC3)c2)cc1 [DDD100888]
ED50 (μM) T. brucei [2, 5]: 0.003 µM

Cc1nn(C)c(C)c1N(C(F)F)[S+](=O)([O-])c1ccc(-c2cccc(C3CCNCC3)c2)cc1 [DDD100891]
ED50 (μM) T. brucei [2, 5]: 0.129 µM
